Experiment: Dissolution of lactam / PVP solid dispersion in water (visual, FIG. 1)
Assay type: physicochemical
Conditions: added to water, amount of lactam equivalent to that in the 1% lactam/PVP solid dispersion
From the text: The inventor(s) have shown that solid dispersion of lactam in PVP confers enhanced aqueous solubility to the lactam. […] Note that this example is a proof of concept, and the lactam used was 4-(4-fluorophenyl)-5-methylene-pyrrol-2-one.
Such solid dispersions dissolve rapidly to give clear solutions.

dissolution in water (aqueous solubility): does not dissolve
SMILES: C=C1NC(=O)C=C1c1ccc(F)cc1 [4-(4-fluorophenyl)-5-methylene-pyrrol-2-one]

Reference: patent US10561142B2, “Dispersed lactams” (Conopco, Inc., priority 2015, dated 2020)
